From patent US20230310540A1, “PEPTIDE COMPOSITIONS AND METHODS OF USE THEREOF” (priority 2020, published 2023)
Values after ≈ are worked out from the molar mass of the structure shown. Square brackets hold non-standard residues; d marks the D form. Peptide text beside a SMILES is read from it. d(hArg) = N=C(N)NCCCC[C@@H](N)C(=O)O

Key:
Assay type in all cases: cell-based
human RBCs = test: Hemolysis of human RBCs
Description: (§1) Peptide variants of D-CONGA (SEQ ID NO: 1) were tested for activity against E. coli, K. pneumoniae, and S. aureus. Minimum Inhibitory Concentrations (MIC) were measured in 96-well plates by broth dilution. Peptides were serially diluted in buffer or in buffer containing 1×10^9 human RBC/ml. Following 1 hr. incubation, bacteria in growth media were added and the plates were incubated overnight at 37° C. Sterilized, wells were identified to determine MIC. Hemolysis was measured by incubating 1×10^8 human RBCs with serially diluted peptide for 30 minutes followed by centrifugation of the cells and measurements of the released hemoglobin in the supernatant by absorbance at 410 nm. The value for 100% hemolysis was established by treatment with the detergent Triton-X100. Toxicity was measured by incubating serially diluted peptide with WI38 human fibroblast cells in the presence of SYTOX Green, a DNA binding dye that reports on cell death by membrane permeabilization. The peptide concentration that gives 50% cytotoxicity by relative SYTOX Green fluorescence, is denoted EC50.
Peptide was serially diluted in PBS starting at a concentration of 100 μM. The final volume of peptide in each well was 50 μL. To each well, 50 μL of RBCs in PBS at 2×10^8 cells/mL was added. As a positive lysis control, 1% triton was used. The mixtures were incubated at 37° C. for 1 hour, after which they were centrifuged at 1000 g for 5 minutes. After centrifugation, 10 μL of supernatant was transferred to 90 μL of DI H2O in a fresh 96-well plate. The absorbance of released hemoglobin at 410 nm was recorded and the fractional hemolysis was calculated based on the 100% and 0% lysis controls.
(§2) MIC values were reported in μM peptide against gram-negative E. coli (EC), P. aeruginosa (PA), and gram-positive S. aureus (SA). The two columns under each organism are for assays performed in the absence (−) and presence (+) of 1×10^9 human RBC/ml. “>30” means that sterilization was not observed at 30 μM, the highest concentration tested. The column marked “hemolysis” is the fractional hemolysis of 1×10^8 human RBC/ml at 100 μM peptide determined from measurements of serially diluted peptide, starting from 100 μM. The column marked “EC 50” contains the concentration of peptide that kills 50% of WI-38 human fibroblast cells assayed by entry of SYTOX™ Green DNA binding dye.

S. aureus = settings: for MIC in Broth Dilution, S. Aureus, RBC −: absence of RBC; for MIC in Broth Dilution, S. Aureus, RBC − / MIC in Broth Dilution, S. Aureus, RBC +: Table 3; for MIC, S. aureus, No RBC / MIC, S. aureus, 10^9 cells/ml RBC: Table 2; for MIC in Broth Dilution, S. Aureus, RBC +: presence of 1×10^9 human RBC/ml; for MIC, S. aureus, 10^9 cells/ml RBC: with 10^9 human RBC/ml
Description: as §1
(§3) Antimicrobial peptides and conventional antibiotics were prepared at 5-times the final concentration needed in 0.025% acetic acid. The antibiotics were serially diluted by a factor of 2:3 horizontally across 96-well plates from Corning, 25 μL per well. One column was reserved for controls. For the assays performed in the presence of RBC, type O+ human RBCs at 0 or 2.5×10^9 cells/mL were added in 50 μL aliquots to all wells. Following a 30-minute incubation, 50 μL of TSB, inoculated with 5×10^5 CFU/mL, was added to all wells, and plates were incubated overnight at 37° C. Following overnight incubation at 37° C., the OD600 was measured (values of less than 0.1 were considered sterilized). To assess bacterial growth in the assays with RBC, the OD600 was measured after a second day inoculation with 10 μL of solution from the original plate added to 100 μL of sterile TSB followed by overnight incubation.
as §2

E. coli = settings: for MIC in Broth Dilution, E. coli, RBC −: absence of RBC; for MIC in Broth Dilution, E. coli, RBC − / MIC in Broth Dilution, E. coli, RBC +: Table 3; for MIC, E. coli, No RBC / MIC, E. coli, 10^9 cells/ml RBC: Table 2; for MIC in Broth Dilution, E. coli, RBC +: presence of 1×10^9 human RBC/ml; for MIC, E. coli, 10^9 cells/ml RBC: with 10^9 human RBC/ml
Description: as §1, §3, §2

Row | Compound | Hemolysis at 100 μM (human RBCs) | MIC in Broth Dilution, S. Aureus, RBC − (S. aureus) [µM] | MIC, S. aureus, No RBC (S. aureus) [µM] | MIC in Broth Dilution, S. Aureus, RBC + (S. aureus) [µM] | MIC, S. aureus, 10^9 cells/ml RBC (S. aureus) [μM] | MIC in Broth Dilution, E. coli, RBC − (E. coli) [µM] | MIC, E. coli, No RBC (E. coli) [µM] | MIC in Broth Dilution, E. coli, RBC + (E. coli) [µM] | MIC, E. coli, 10^9 cells/ml RBC (E. coli) [μM]
1 | CC(C)C[C@@H](NC(=O)[C@@H](CCCNC(=N)N)NC(=O)[C@H](N)CCCNC(=N)N)C(=O)N[C@H](C)C(=O)N[C@H](Cc1ccccc1)C(=O)N[C@H](C)C(=O)N[C@H](Cc1ccccc1)C(=O)N[C@H](Cc1c[nH]c2ccccc12)C(=O)N[C@H](C)C(=O)N[C@H](CCCNC(=N)N)C(=O)N[C@H](CCCNC(=N)N)C(=O)N[C@H](CCCNC(=N)N)C(=O)N[C@H](CCCNC(=N)N)C(N)=O [D-CONGA-FLIP, rrlafafwarrrr (All D)] (H-[dR][dR][dL][dA][dF][dA][dF][dW][dA][dR][dR][dR][dR]-NH2) | 0.05 | 1.7 (≈ 2.99 µg/mL) | 1.7 (≈ 2.99 µg/mL) | 3.7 | 3.7 | 1 (≈ 1.76 µg/mL) | 1 (≈ 1.76 µg/mL) | 1.5 | 1.5
2 | CC(C)C[C@@H](NC(=O)CNC(=O)[C@@H](CCCNC(=N)N)NC(=O)[C@@H](CCCNC(=N)N)NC(=O)[C@@H](C)NC(=O)[C@@H](Cc1c[nH]c2ccccc12)NC(=O)[C@@H](CCCNC(=N)N)NC(=O)[C@H](N)CCCNC(=N)N)C(=O)N[C@H](C)C(=O)N[C@H](Cc1ccccc1)C(=O)N[C@H](C)C(=O)N[C@H](Cc1ccccc1)C(=O)N[C@H](CCCNC(=N)N)C(=O)N[C@H](CCCNC(=N)N)C(N)=O [D-CONGA-G7, rrwarrglafafrr (All D)] (H-[dR][dR][dW][dA][dR][dR]G[dL][dA][dF][dA][dF][dR][dR]-NH2) | 0.07 | 6.4 (≈ 11.6 µg/mL) | 6.4 (≈ 11.6 µg/mL) | 6.9 | 6.9 | 1.3 (≈ 2.36 µg/mL) | 1.3 (≈ 2.36 µg/mL) | 1.4 | 1.4
3 | CC(C)C[C@@H](NC(=O)[C@@H](CCCCNC(=N)N)NC(=O)[C@@H](CCCCNC(=N)N)NC(=O)[C@@H](C)NC(=O)[C@@H](Cc1c[nH]c2ccccc12)NC(=O)[C@@H](CCCNC(=N)N)NC(=O)[C@H](N)CCCNC(=N)N)C(=O)N[C@H](C)C(=O)N[C@H](Cc1ccccc1)C(=O)N[C@H](C)C(=O)N[C@H](Cc1ccccc1)C(=O)N[C@H](CCCNC(=N)N)C(=O)N[C@H](CCCNC(=N)N)C(N)=O [D-CONGA-HomoR, rrwa (homo r, homo r)lafafrr] (H-[dR][dR][dW][dA][d(hArg)][d(hArg)][dL][dA][dF][dA][dF][dR][dR]-NH2) | 0.06 | 1.7 (≈ 3.04 µg/mL) | 1.7 (≈ 3.04 µg/mL) | 2.5 | 2.5 | 1.3 (≈ 2.33 µg/mL) | 1.3 (≈ 2.33 µg/mL) | 2.2 | 2.2
4 | CC(C)C[C@@H](NC(=O)[C@@H](CCCNC(=N)N)NC(=O)[C@H](CCCNC(=N)N)NC(=O)[C@@H](C)NC(=O)[C@@H](Cc1c[nH]c2ccccc12)NC(=O)[C@@H](CCCNC(=N)N)NC(=O)[C@H](N)CCCNC(=N)N)C(=O)N[C@H](C)C(=O)N[C@H](Cc1ccccc1)C(=O)N[C@@H](C)C(=O)N[C@H](Cc1ccccc1)C(=O)N[C@H](CCCNC(=N)N)C(=O)N[C@H](CCCNC(=N)N)C(N)=O [D-CONGA-L(R5, A10), rrwaRrlafAfrr] (H-[dR][dR][dW][dA]R[dR][dL][dA][dF]A[dF][dR][dR]-NH2) | 0.04 | >30 | 30 (≈ 52.8 µg/mL) | >30 | 30 | 1.4 (≈ 2.47 µg/mL) | 1.4 (≈ 2.47 µg/mL) | 1.4 | 1.4
5 | CC(C)C[C@@H](NC(=O)[C@@H](CCCNC(=N)N)NC(=O)[C@@H](CCCNC(=N)N)NC(=O)[C@@H](Cc1c[nH]c2ccccc12)NC(=O)[C@@H](CCCNC(=N)N)NC(=O)[C@H](N)CCCNC(=N)N)C(=O)N[C@H](C)C(=O)N[C@H](Cc1ccccc1)C(=O)N[C@H](C)C(=O)N[C@H](Cc1ccccc1)C(=O)N[C@H](CCCNC(=N)N)C(=O)N[C@H](CCCNC(=N)N)C(N)=O [D-CONGA-ΔA4, rrwrrlafafrr (All D)] (H-[dR][dR][dW][dR][dR][dL][dA][dF][dA][dF][dR][dR]-NH2) | 0.02 | 3.2 (≈ 5.41 µg/mL) | 3.2 (≈ 5.41 µg/mL) | 2.3 | 2.3 | 1.6 (≈ 2.7 µg/mL) | 1.6 (≈ 2.7 µg/mL) | 2.8 | 2.8
6 | CC(C)C[C@@H](NC(=O)[C@@H](CCCNC(=N)N)NC(=O)[C@@H](CCCNC(=N)N)NC(=O)[C@@H](C)NC(=O)[C@@H](Cc1c[nH]c2ccccc12)NC(=O)[C@@H](CCCNC(=N)N)NC(=O)[C@H](N)CCCNC(=N)N)C(=O)N[C@H](C)C(=O)N[C@H](Cc1ccccc1)C(=O)N[C@H](Cc1ccccc1)C(=O)N[C@H](CCCNC(=N)N)C(=O)N[C@H](CCCNC(=N)N)C(N)=O [D-CONGA-ΔA10, rrwarrlaffrr (All D)] (H-[dR][dR][dW][dA][dR][dR][dL][dA][dF][dF][dR][dR]-NH2) | 0.02 | 23.5 (≈ 39.7 µg/mL) | 24 (≈ 40.6 µg/mL) | 19 | 19 | 0.7 (≈ 1.18 µg/mL) | 0.7 (≈ 1.18 µg/mL) | 1.3 | 1.3
7 | CC(C)C[C@@H](NC(=O)[C@@H](CCCNC(=N)N)NC(=O)[C@@H](CCCNC(=N)N)NC(=O)[C@@H](C)NC(=O)[C@@H](Cc1c[nH]c2ccccc12)NC(=O)[C@@H](CCCNC(=N)N)NC(=O)[C@H](N)CCCNC(=N)N)C(=O)N[C@H](C)C(=O)N[C@H](Cc1ccccc1)C(=O)N[C@H](C)C(=O)N[C@H](Cc1ccccc1)C(=O)N[C@H](CCCNC(=N)N)C(N)=O [D-CONGA-ΔR13, rrwarrlafafr (All D)] (H-[dR][dR][dW][dA][dR][dR][dL][dA][dF][dA][dF][dR]-NH2) | 0.03 | 27.1 (≈ 43.5 µg/mL) | 27 (≈ 43.3 µg/mL) | >30 | 30 | 0.9 (≈ 1.44 µg/mL) | 0.9 (≈ 1.44 µg/mL) | 0.6 | 0.6
8 | CC(C)C[C@H](NC(=O)[C@H](CCCNC(=N)N)NC(=O)[C@H](CCCNC(=N)N)NC(=O)[C@H](C)NC(=O)[C@H](Cc1c[nH]c2ccccc12)NC(=O)[C@H](CCCNC(=N)N)NC(=O)[C@H](N)CCCNC(=N)N)C(=O)N[C@@H](C)C(=O)N[C@@H](Cc1ccccc1)C(=O)N[C@@H](C)C(=O)N[C@@H](Cc1ccccc1)C(=O)N[C@@H](CCCNC(=N)N)C(=O)N[C@H](CCCNC(=N)N)C(N)=O [L-CONGA-D(R1, R13)] (H-[dR]RWARRLAFAFR[dR]-NH2) | 0.01 | >30 | 30 (≈ 52.8 µg/mL) | >30 | 30 | 20 (≈ 35.2 µg/mL) | 20 (≈ 35.2 µg/mL) | 26.2 | 26.2
